Measurements as given in patent publication EP0220873B1, “Fused bicyclic imides with psychotropic activity” (priority 1985, dated 1987).
Counter-ions that a name gives are not always drawn.

Key:
avoidance responding [1] = test: conditioned avoidance (discrete trial) test; assay type: in vivo, Male CD rats; conditions: for ED50: Rattus norvegicus
Description: The antipsychotic activity of the compounds of the invention is assessed via the conditioned avoidance (discrete trial) test. This test has excellent clinical correlation for antipsychotic activity.
The test is carried out as follows: Male CD rats (Charles River) maintained at approximately 400-450 gm body weight are used. Rats trained previously are placed in plexiglass experimental chambers equipped with a response lever, house light, and sonalert. A steel grid floor is wired for presentation of electric shock. Each trial consists of a fifteen-second warning tone (conditioned stimulus), continuing for an additional fifteen seconds accompanied by electric shock, (unconditioned stimulus). The rat can terminate a trial at any point by depression of the response lever. As response during the initial fifteen-second warning tone ends the trial before shock delivery and is considered avoidance response, while a response occurring during shock delivery is an escape response. Trials are presented on a variable interval schedule of two minutes. The session consists of sixty trials. Animals are run two to three times weekly with control sessions always preceding a drug run, and with at least one day intervening, compounds are administered i.p. or p.o. at appropriate pre-treatment times to a minimum of five to six rats at each dose level over a range of doses.
(§1) Response counts are summed over all subjects at a given dose. […] This number is expressed as a percentage of the total trials. Control performance is arbitrarily assigned a value of 100% for avoidance and the dose calculated to produce a 50% block in avoidance responding (AB₅₀) is obtained from a dose-effect regression line fitted by the method of least squares. Potential antipsychotic compounds suppress avoidance responding and increase escape responding.

avoidance responding [2] = test: conditioned avoidance (shelf-jump response) test; assay type: in vivo, Male CD rats; conditions: for Active at mg/kg: i.p.
Description: Another test designed to determine the potential antipsychotic activity of the compounds of the invention is the conditioned avoidance (shelf-jump response) test.
This test is carried out as follows: Male CD rats (Charles River) maintained at approximately 400-450 gm body weight are used. Previously trained rats are placed in plexiglass experimental chambers divided into two sections; a main chamber (10 1/2" x 6 3/4" x 11 7/8" high) and an elevated chamber or shelf (5 7/8" x 6 7/8" x 5 3/4"). A moveable wall, controlled by a motor, determines whether the rat has access to the shelf at any time during the experiment. The experimental chamber also contains a house light and sonalert. A steel grid floor in the main chamber is wired for presentation of electric shock. Each trial consists of a fifteen-second warning tone (conditioned stimulus), continuing for an additional fifteen seconds accompanied by electric shock, (unconditioned stimulus). A response (jumping onto the exposed shelf of the upper chamber) occurring during the initial fifteen-second warning tone is considered an avoidance response, while a response occurring during shock delivery is considered an escape response. Trials are presented on a fixed interval schedule of one minute. The session consists of thirty-six trials. Animals are run twice weekly with control sessions always preceding a drug run, and with at least one day intervening. Compounds are administered i.p. or p.o. at appropriate pre-treatment times to a minimum of five rats at each dose level over a range of doses.
The following experimental parameters are recorded by computer: (1) the number of avoidance responses, (2) the number of escape responses, and (3) the number of trials in which no response occurred.
as §1

[3] = biological target: T1, limbic D-2 dopamine receptor (Rattus norvegicus, UniProt P61169); test: biochemical; assay type: binding, rats; conditions: for Ki: Table 1, 0.3 nM 3H-spiroperidol, rat limbic brain tissue, read-out: Limbic D-2 Binding (KinM); for inhibition at 1 µM: read-out: Limbic D-2 Binding, % inhibition at 1 µM
T1 construct: Limbic brain tissue (nucleus accumbens, septal area, olfactory tubercle) is dissected; from tissue; host or cells: rat limbic brain tissue (nucleus accumbens, septal area, olfactory tubercle) homogenate

[4] = ip, standard compounds, dose producing 50% block in avoidance responding, read-out: AB50 (the source's name)

T1 sequence (P61169 whole entry): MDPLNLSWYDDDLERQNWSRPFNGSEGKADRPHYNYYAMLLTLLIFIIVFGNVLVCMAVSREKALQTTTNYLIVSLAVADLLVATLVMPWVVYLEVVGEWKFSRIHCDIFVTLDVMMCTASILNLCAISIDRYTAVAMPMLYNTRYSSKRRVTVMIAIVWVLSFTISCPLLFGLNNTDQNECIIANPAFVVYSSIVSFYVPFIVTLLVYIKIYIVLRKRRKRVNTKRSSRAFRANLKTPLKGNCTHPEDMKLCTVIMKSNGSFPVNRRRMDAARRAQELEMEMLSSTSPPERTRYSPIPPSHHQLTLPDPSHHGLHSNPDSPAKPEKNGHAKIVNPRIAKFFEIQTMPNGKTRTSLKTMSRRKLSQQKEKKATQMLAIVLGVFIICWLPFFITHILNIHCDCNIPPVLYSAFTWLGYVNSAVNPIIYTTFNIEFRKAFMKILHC

| Compound | Active at mg/kg (avoidance responding [2]) | also measured |
| --- | --- | --- |
| 2-[4-[4-(2-Pyrimidinyl)-1-piperazinyl]butyl]octahydro-4,7ethano-1H-cyclobut[f]isoindole-1,3-(2H)-dione, dihydrochloride, sesquihydrate [Example 6] | 40 (i.p.) mg/kg | Active at mg/kg (avoidance responding [1]; p.o., active dose, no AB50): 40 (p.o.) mg/kg |
| O=C1CC2(CCCC2)CC(=O)N1CCCCN1CCN(c2ncccn2)CC1 [Buspirone, 8-[4-[4-(2-pyrimidinyl)-1-piperazinyl]butyl]-8-azaspiro[4.5]decane-7,9-dione, reference compound] |  | ED50 (avoidance responding [2]; Rattus norvegicus, ip, standard compounds, read-out: AB50 (the source's name)): 9.94 mg/kg |
| O=C1C2C3C=CC(C4CC34)C2C(=O)N1CCCCN1CCN(c2ncccn2)CC1 (centres unmarked) [Example 2, 4,4a,5,5a,6,6a-Hexahydro-2-[4-[4-(2-pyrimidinyl)-1-piperazinyl]butyl]-4,6-ethenocycloprop[f]isoindole-1,3-(2H,3aH)-dione,dihydrochloride, hydrate] | 40 (i.p.) mg/kg |  |
| O=C1C2C3C=CC(C4C=CC43)C2C(=O)N1CCCCN1CCN(c2cncc(Cl)n2)CC1 (centres unmarked) [Example 4, 3a,4,4a,6a,7,7a-Hexahydro-2-[4-[4-(6-chloro-2-pyrazinyl)-1-piperazinyl]butyl]-4,7-etheno-1H-cyclobut[f]isoindole-1,3(2H)-dione, dihydrochloride, sesquihydrate] | 40 (i.p.) mg/kg |  |
| O=C1C2C3CCC(C4CCC43)C2C(=O)N1CCCCN1CCN(c2cncc(Cl)n2)CC1 (centres unmarked) [Example 5, 2-[4-[4-(6-Chloro-2-pyrazinyl-1-piperazinyl]butyl]octahydroo-4,7-ethano-1H-cyclobut[f]isoindole-1,3-(2H)-dione, hydrochloride, hemihydrate] | 40 (i.p.) mg/kg |  |
| O=C1C2C3C=CC(C4CC34)C2C(=O)N1CCCCN1CCN(c2ccc(Cl)nn2)CC1 (centres unmarked) [Example 9, 2-[4-[4-(6-Chloro-3-pyridazinyl)-1-piperazinyl]butyl]hexahydro-4,6-ethenocycloprop[f]isoindole-1,3-(2H,3H)-dione, hydrochloride] | 40 (i.p.) mg/kg |  |
| O=C1C2C3C=CC(C4CCC34)C2C(=O)N1CCCCN1CCN(c2nccnc2Cl)CC1 (centres unmarked) [Example 10, 2-[4-[4-(3-Chloro-2-pyrazinyl)-1-piperazinyl]butyl] octahydro-4,7-etheno-1H-cyclobut[f]isoindole-1,3(2H)--dione, dihydrochloride, hydrate] | 40 (i.p.) mg/kg |  |
| O=C1C2C3C=CC(C4C=CC43)C2C(=O)N1CCCCN1CCN(c2ccc(Cl)nn2)CC1 (centres unmarked) [Example 11, 3a,4,4a,6a,7,7a-Hexahydro-2-[4-[4-(6-chloro-3-pyridazinyl)-1-piperazinyl]butyl]4,7-etheno-1H--cyclobut[f]isoindole-1,3(2H)-dione, hydrochloride, hydrate] | 40 (i.p.) mg/kg |  |
| O=C1C2C3C=CC(C4C=CC43)C2C(=O)N1CCCCN1CCN(c2nccnc2Cl)CC1 (centres unmarked) [Example 12, 3a,4,4a,6a,7,7a-Hexahydro-2-[4-[4-(3-chloro-2-pyrazinyl-1-piperazinyl]butyl]4,7-etheno-1H-cyclobut[f]isoindole-1,3(2H)-dione, hydrochloride, dihydrate] | 40 (i.p.) mg/kg |  |
| O=C1C2C3CCCCC(CC3)C2C(=O)N1CCCCN1CCN(c2cncc(Cl)n2)CC1 (centres unmarked) [Example 14, hydrochloride, hemihydrate] | 40 (i.p.) mg/kg | Ki [3]: 440 nM |
| O=C1C2C3C=CC(C4CCC34)C2C(=O)N1CCCCN1CCN(c2cncc(Cl)n2)CC1 (centres unmarked) [Example 15, 2-[4-[4-(6-Chloro-2-pyrazinyl)-1-piperazinyl]butyl]-octahydro-4,7-etheno-1H-cyclobut[f]isoindol-1,3-(2H)-dione, hydrochloride] | 40 (i.p.) mg/kg | Ki [3]: 413 nM |
| O=C1C2C3C=CC(C3)C2C(=O)N1CCCCN1CCN(c2ccc(Cl)nn2)CC1 (centres unmarked) [Example 17, 2-[4-[4-(6-Chloro-3-pyridazinyl-1-piperazinyl]butyl]-3a,4,7,7a-tetrahydro-4,7-methano-1H-isoindole-1,3-(2H)-dione, hydrochloride, dihydrate] | 40 (i.p.) mg/kg | inhibition at 1 µM [3]: 19% |
| O=C1C2C3C=CC(C3)C2C(=O)N1CCCCN1CCN(c2nccnc2Cl)CC1 (centres unmarked) [Example 18, 2-[4-[4-(3-Chloro-2-pyrazinyl)-1-piperazinyl]butyl]-3a,4,7,7a-tetrahydro-4,7-methano-1H-isoindole-1,3-(2H)-dione, hydrochloride, 2.5 hydrate] | 40 (i.p.) mg/kg | inhibition at 1 µM [3]: 48%; ED50 (avoidance responding [1]; po, footnote 1 = AB50 value, read-out: Active at mg/kg (AB50 value)): 40 mg/kg |
| Cl.O.O=C1C2C3C=CC(C4CC34)C2C(=O)N1CCCCN1CCN(c2nccnc2Cl)CC1 (centres unmarked) [Example 19, 2-[4-[4-(3-Chloro-2-pyrazinyl)-1-piperazinyl]butyl]hexahydro-4,6-ethenocycloprop[f]isoindole-1,3(2H,3aH)-dione, hydrochloride, hydrate] | 40 (i.p.) mg/kg | Ki [3]: 54 nM |
| Cl.O.O=C1C2C3C=CC(CCCC3)C2C(=O)N1CCCCN1CCN(c2nccnc2Cl)CC1 (centres unmarked) [Example 20, 2-[4-[4-(3-Chloro-2-pyrazinyl)-1-piperazinyl]butyl]octahydro-4,9-etheno-1H-cycloocta[c]pyrrole-1,3(2H)-dione, hydrochloride, hydrate] | 40 (i.p.) mg/kg | inhibition at 1 µM [3]: 78% |
| Cl.O.O=C1C2C3C=CC(CCC3)C2C(=O)N1CCCCN1CCN(c2cncc(Cl)n2)CC1 (centres unmarked) [Example 22, 2-[4-[4-(6-Chloro-2-pyrazinyl)-1-piperazinyl]butyl]-4,5,6,7,8,8a-hexahydro-4,8-ethenocyclohepta[c]pyrrole-1,3(2H,3aH)-dione, hydrochloride, hydrate] | 40 (i.p.) mg/kg | inhibition at 1 µM [3]: 43%; ED50 (avoidance responding [1]; po, read-out: Active at mg/kg (AB50 value)): 68.4 mg/kg |
| Cl.O=C1C2C3CCC(C4CC43)C2C(=O)N1CCCCN1CCN(c2cncc(Cl)n2)CC1 (centres unmarked) [Example 25, 2-[4-[4-(6-Chloro-2-pyrazinyl)-1-piperazinyl]butyl]hexahydro-4,6-ethanocycloprop[f]isoindole-1,3(2H,3aH)-dione, hydrochloride] | 40 (i.p.) mg/kg | inhibition at 1 µM [3]: 49% |
| Cl.O=C1C2C3CCC(C4CC43)C2C(=O)N1CCCCN1CCN(c2nccnc2Cl)CC1 (centres unmarked) [Example 26, 2-[4-[4-(3-Chloro-2-pyrazinyl)-1-piperazinyl]butyl]hexahydro-4,6-ethanocycloprop[f]isoindole-1,3(2H,3aH)-dione, hydrochloride] | 40 (i.p.) mg/kg | inhibition at 1 µM [3]: 75% |
| Cl.Cl.O.O=C1C2C3C=CC(C4C=CC43)C2C(=O)N1CCCCN1CCN(c2ccc(C(F)(F)F)cn2)CC1 (centres unmarked) [Example 28, 3a,4,4a,6a,7,7a-Hexahydro-2-[4-[4-(5-trifluoromethyl-2-pyridinyl)-1-piperazinyl]-butyl]-4,7-etheno-1H-cyclobut[f]isoindole-1,3(2H)-dione, dihydrochloride, hydrate] | 40 (i.p.) mg/kg |  |
| Cl.Cl.O=C1C2C3CCCC(CC3)C2C(=O)N1CCCCN1CCN(c2ncccn2)CC1 (centres unmarked) [Example 29, 4,5,6,7,8,8a-Hexahydro-2-[4-[4-(2-pyrimidinyl)-1-piperazinyl]butyl]-4,8-ethanocyclohepta[c]pyrrole-1,3(2H,3aH)-dione, dihydrochloride] | 40 (i.p.) mg/kg |  |
| O=C(CCCN1CCC(O)(c2ccc(Cl)cc2)CC1)c1ccc(F)cc1 [Haloperidol, reference compound] |  | ED50 (avoidance responding [1]; [4]): 0.18 mg/kg |
| O=C(CCCN1CCC2(CC1)C(=O)NCN2c1ccccc1)c1ccc(F)cc1 [Spiperone, reference compound] |  | ED50 (avoidance responding [1]; [4]): 0.13 mg/kg |
| CSc1ccc2c(c1)N(CCC1CCCCN1C)c1ccccc1S2 (centres unmarked) [Thioridazine, reference compound] |  | ED50 (avoidance responding [1]; [4]): 8.61 mg/kg |
